The text below walks through data of US20020161018A1, “Enhancement of the potency and efficacy of local anesthetics with ibutilide and other methanesulfonamide drugs” (priority 2001, published 2002).

Entries after “also recorded” stand apart in the source; their conditions may differ. Structures can show the parent of a compound that is named as a salt. Marks after values point to notes of the source that are not given here.

In assay [1] the test system is male ICR mice. The assay can be described thus: Radiant heat tail-flick test after subcutaneous infiltration of the tail (infiltration anesthesia). It is filed as in vivo. The note with it: for % Bupivacaine ED50 (95% C.L.): bupivacaine mixed with vehicle or sotalol (10 nmoles), infiltrated in mouse tail. As for the experimental part: Methods of handling mice. Male ICR mice (Harlan Laboratories, Indianapolis, Ind.) weighing 27.0±0.4 g were housed 6 to a cage in animal care quarters maintained at 22±2 ° C. on a 12-h light-dark cycle. Food and water were available ad libitum. The mice were brought to a test room (22±2° C. , 12-h light-dark cycle), marked for identification and allowed 16-h to recover from transport and handling. The Institutional Animal Care and Use Committee at the Medical College of Virginia Campus of Virginia Commonwealth University approved all the procedures in this study.
The tail-flick test. The tail-flick test used to assess for infiltration anesthesia was developed by D'Amour and Smith (1941) and modified by Dewey et al (1970). The tail-flick device is designed to focus a light beam onto the site infiltrated with local anesthetic, without exposing non-injected tissue to the noxious radiant heat stimulus. The intensity was adjusted to yield baseline latencies of between 2- to 4-sec. A single baseline latency was obtained approximately 15-min before the mice were injected with drug. A 10-sec cut-off was used to prevent any potential tissue damage. In experiments testing for potential underlying infiltration anesthesia that was not observed with the higher heat stimulus, the intensity was reduced to yield baseline latencies of about 6-sec. A 12-sec cut-off was used in these experiments.
Subcutaneous infiltration of bupivacaine. Before infiltration of vehicle or drug, baseline tail-flick latencies were obtained by exposing the tail to noxious radiant heat at the site to be infiltrated with drug. The baseline average over the entire study was 3.1±0.1 sec. The mice were then restrained to allow us unencumbered access to the tail. A 26-gauge ⅝ needle was inserted approximately 1.0 to 1.3 cm longitudinally under the skin in the subcutaneous space in the dorsal aspect of the tail. The needle was attached to a 1-ml syringe (Becton Dickinson, Franklin Lakes, N.J. ) pre-filled with drug solution. A […] volume of drug solution was infiltrated, and the needle was left in place for 5-s to prevent leakage of injectate from the site after removing the needle. During injection, the solution dispersed around the circumference of the tail in a rostral-caudal direction of about 2- to 3-cm. A slight blanching of the skin that reversed within 1 to 2 min indicated the extent of the spread of solution. A non-toxic marking pen was used to mark the most rostral spread of solution. Tail-flick testing was conducted below the area marked on the tail. These methods are detailed in a previous report (Smith et al. 1997).
Experimental design. Sotalol was solubilized and then mixed with bupivacaine HCl for co-infiltration of the tail. The influence of increasing concentrations of sotalol on the ED50 dose of bupivacaine was also examined. Both baseline and test tail-flick latencies from each animal were converted into the percentage of maximum possible effect (% MPE) according to the method of Harris and Pierson (1964), which was calculated as: % MPE=[(test−baseline)/(10−baseline)]×100. The ordinate was % MPE, while the abscissa was expressed as the dose of sotalol. Complete bupivacaine dose-response curves were generated in the absence and presence of sotalol (10 nmole) for calculation of ED50 and potency ratio values. The ordinate was % MPE, while the abscissa was expressed as the % bupivacaine dose.
Statistical analyses: The Tail-Flick Latency (sec) values were analyzed with one factor ANOVA for experiments in which different concentrations of sotalol were tested with an ED50 dose of bupivacaine. A statistically significant F-value led to post hoc comparisons using the Tukey's test. The % MPE values for dose-response curves were analyzed in the following manner. ED50 values were calculated using least squares linear regression analysis of % MPE values followed by calculation of 95% confidence limits (C.L.) according to the method of Bliss (1967). […]
For orientation: In hot-plate and tail-flick tests a longer latency is read as antinociception.

The test system of assay [2] is male ICR mice. The assay can be described thus: Hot-plate paw-withdrawal test after popliteal (peri-sciatic nerve block) injection. It is filed as in vivo. The note with it: for local anesthesia of the drug alone in the presence of 1:200,000 epinephrine: 0.125% bupivacaine or ibutilide (3.9 nmoles), each with 1:200,000 epinephrine; for local anesthesia of the drug alone (paw-withdrawal latency): 0.5% bupivacaine or ibutilide (3.9 nmoles) with vehicle, 60-min time-course, or bupivacaine dose-response at 10-min; for Potency ratio (95% C.L.): 10-min; for % Bupivacaine ED50 (95% C.L.): tested 10-min later. On the procedure: Animals: Male ICR mice (25-30 gm) were obtained from Harlan Sprague Dawley. The mice were housed in groups of four to six and kept on a 12-h light/12-h dark cycle. Mice were tested during the light cycle; and the original groupings were maintained (i.e., mice were not recombined into new groups or isolated) to decrease infighting and consequent stress that could confound the results. Behavioral Procedures: Following the procedure of Leszczynska and Kau (1992), each mouse was placed on a ¼inch wire mesh screen, which was then inverted; a mouse with no motor defects walks in a characteristic circular pattern, grasping the mesh with each paw and then letting go. Mice that could not walk normally at baseline were not used for testing. […] Baseline paw withdrawal latencies ranged between 2- to 3-sec. After collecting baseline data, the mice were injected with vehicle, ibutilide, or bupivacaine mixed with vehicle or ibutilide. At the appropriate times, motor scores and test paw withdrawal latencies were obtained. A 20-sec cut-off was employed to prevent tissue damage on the hot-plate test. Injection Procedures: Each mouse was injected with drug solution using a 30 gauge,½ inch needle attached to a 1 ml syringe (needle and syringe from Becton Dickinson). The animals were gently restrained, while the limb to be injected was extended to expose the popliteal space, which is behind the knee of the mouse. The needle was inserted in the popliteal space, and 0.05 ml of drug solutions injected. The nerve bundle of the sciatic nerve passes through the popliteal space. Thus, the limb and paw distal to the injection is effectively anesthetized. The motor and sensory tests were then repeated at 5-min intervals for a 1-h period. […] Some mice could place their paw on the screen, but could not grasp the screen with their digits; this was determined to be an intermediate phase. The motor block was determined to be resolved when the mouse could walk on the inverted screen using both the leg and paw. Sensory blockade was assessed by measuring in seconds, the time the bupivacaine-injected paw remained on hot-plate surface before withdrawing it. The test was terminated if the cut-off of 20-sec occurred during the test procedure. For time-course studies, two-factor repeated measures analysis of variance followed by the post hoc Tukey's test was used to assess for significant increases in paw withdrawal latencies compared to baseline. In addition, the effect of ibutilide to enhance bupivacaine was assessed, and compared with the appropriate controls at each time point during the 60-min test period. For dose-response curves, the data was converted to the percentage of maximum possible effect, which was calculated as: % MPE=[(Test−Baseline)/(20 −Baseline)]×100. […] The absence of overlapping confidence limits was used to indicate significant differences in ED50 values between dose-response curves. Potency-ratio values with 95% confidence limits were calculated by the method of Colquhoun (1971). Drugs: Sterile isotonic saline was used to dissolve and dilute drug solutions. Bupivacaine HCl was purchased from the MCV Hospitals Pharmacy (Winthrop Pharmaceuticals, NY, N.Y. ). To assure consistency, the same vial of bupivacaine was used for all injections involving bupivicaine. The concentration was varied by either diluting with normal saline, or by freeze-drying and then reconstituting the material with normal saline. The same vial of bupivacaine with 1:200,000 epinephrine was used for the second set of experiments. The epinephrine dose was adjusted by adding epinephrine to maintain a constant concentration of epinephrine 2.76×10^−5 M. Ibutilide fumarate was purchased from the MCV Hospitals Pharmacy (Pharmacia & Upjohn Company of Kalamazoo, Mich.). The concentration of ibutilide was held constant at 3.9 nanomoles (nmoles) per mouse. Enhancement of Bupivacaine HCl with Ibutilide. Experiments were conducted to determine whether ibutilide would enhance the local anesthetic effects of bupivacaine. […]

The mark [3] stands for this setting: bupivacaine containing 1:200,000 epinephrine mixed with vehicle or ibutilide (3.9 nmoles), popliteal space, hot-plate.
Setting [4] is: hot-plate 56° C., bupivacaine mixed with vehicle or ibutilide (3.9 nmoles), injected in popliteal space, no epinephrine.

Regarding `CC(C)NCC(O)c1ccc(NS(C)(=O)=O)cc1.Cl` (stereo not shown) [Sotalol, N-[4-[1-hydroxy-2-[(1-methylethyl)amino]ethyl]phenyl]methanesulfonamide monohydrochloride], in assay [1] (bupivacaine + sotalol (10 nmoles) vs bupivacaine + vehicle, tail-flick, 30-min), the “Potency ratio (95% C.L.)” value is on record as 2.7 (1.6 to 4.5). Moreover, the “% Bupivacaine ED50 (95% C.L.)” value in assay [1] (tail-flick 30-min later) is given as 0.04% (0.03 to 0.06)**. In addition, the “increase in potency of bupivacaine” value in assay [1] (in the presence of sotalol (10 nmoles), tail-flick, 30-min) was determined as 2.7 fold. Further, the “enhancement of the anesthetic effects of an ED50 dose of bupivacaine (0.12%)” value in assay [1] (increasing doses of sotalol co-infiltrated, tail-flick 30-min later) was “enhanced in a dose-dependent fashion”. Also, in assay [1] (sotalol alone, tail infiltration, tail-flick 30-min later, monohydrochloride), the “anesthetic effect of the drug alone” value is “inactive; also recorded: no anesthetic effects”.
For `CCCCCCCN(CC)CCCC(O)c1ccc(NS(C)(=O)=O)cc1` (racemic) [Ibutilide, (±) N-[4-[4-(Ethylheptylamino)-1-hydroxybutyl]phenyl]methanesulfonamide (E)-2-butenedioate (2:1) salt], the “local anesthesia of the drug alone in the presence of 1:200,000 epinephrine” value in assay [2] (1-h time-course) was “failed to elicit any anesthetic effects”. The “local anesthesia of the drug alone (paw-withdrawal latency)” value in assay [2] (no epinephrine) was “no anesthesia; also recorded: inactive”. In addition, the “Potency ratio (95% C.L.)” value is reported as 6.8 (4.3 to 12.7)** in assay [2] (bupivacaine + 1:200,000 epinephrine + ibutilide (3.9 nmoles) vs vehicle control, hot-plate) and 2.8 (1.9 to 3.8)** in assay [2] (bupivacaine + ibutilide (3.9 nmoles) vs bupivacaine + vehicle, hot-plate, no epinephrine). Further, the “% Bupivacaine ED50 (95% C.L.)” value was 0.05% (0.04 to 0.06)** in assay [2] (setting [3]) and 0.24% (0.19 to 0.30)** in assay [2] (setting [4]). Further, the “enhancement of the local anesthetic effects of 0.5% bupivacaine” value in assay [2] (ibutilide 3.9 nmoles mixed with 0.5% bupivacaine, 60-min time-course, no epinephrine) was “markedly enhanced; also recorded: significantly increased”. Also, in assay [2] (ibutilide 3.9 nmoles mixed with 0.5% bupivacaine, tested every 5 min for 1-h), the “duration of enhancement of the local anesthetic effects of 0.5% bupivacaine” value amounted to 35 min. Besides, the “enhancement of the amount (efficacy) of 0.125% bupivacaine + 1:200,000 epinephrine” value in assay [2] (ibutilide 3.9 nmoles, 1-h time-course) is “greatly increased”. Further, in assay [2] (in the presence of ibutilide (3.9 nmoles), hot-plate), the “increase in relative potency of bupivacaine+1:200,000 epinephrine” value worked out at 6.8 fold. Further, the “increase in potency of bupivacaine” value in assay [2] (in the presence of ibutilide (3.9 nmoles), hot-plate, no epinephrine) is on record as 2.8 fold.
Consider `CNC[C@H](O)c1ccc(O)c(O)c1` [epinephrine], for which the “effect of 1:200,000 epinephrine on the efficacy of 0.125% bupivacaine” value in assay [2] (time-course experiments, hot-plate) is “increased”.
On to `CCCCN1CCCCC1C(=O)Nc1c(C)cccc1C` (stereo not shown) [bupivacaine], for which the “local anesthesia of the drug alone in the presence of 1:200,000 epinephrine” value in assay [2] (1-h time-course) was “elicited local anesthesia”. The “local anesthesia of the drug alone (paw-withdrawal latency)” value in assay [2] (no epinephrine) is reported as “mild level of anesthesia; also recorded: dose-dependent anesthesia”. Besides, the “% Bupivacaine ED50 (95% C.L.)” value is given as 0.31% (0.22 to 0.44) in assay [2] (setting [3]), 0.67% (0.59 to 0.77) in assay [2] (setting [4]) and 0.11% (0.08 to 0.15) in assay [1] (tail-flick 30-min later).
